Read-outs that look alike come from different tables or passages of the source.
System: HCV replicon cells (1b)
Experiment: Cell-Based HCV Replicon Assay
Procedure: To measure cell-based anti-HCV activity of selected compounds of the present invention, replicon cells were seeded at 5000 cells/well in 96-well collagen I-coated Nunc plates in the presence of the test compound. Various concentrations of test compound, typically in 10 serial 2-fold dilutions, were added to the assay mixture, with the starting concentration ranging from 250 μM to 1 μM. The final concentration of dimethylsulfoxide was 0.5%, fetal bovine serum was 5%, in the assay media. Cells were harvested on day 3 by the addition of 1× cell lysis buffer (Ambion cat #8721). The replicon RNA level was measured using real time PCR (Taqman assay). The amplicon was located in 5B. The PCR primers were: 5B.2F, […] (SEQ ID. NO. 1); 5B.2R, […] (SEQ ID. NO. 2); the probe sequence was FAM-labeled […] (SEQ ID. NO. 3). GAPDH RNA was used as endogenous control and was amplified in the same reaction as NS5B (multiplex PCR) using primers and VIC-labeled probe recommended by the manufacturer (PE Applied Biosystem). The real-time RT-PCR reactions were run on ABI PRISM 7900HT Sequence Detection System using the following program: 48° C. for 30 minutes, 95° C. for 10 minutes, 40 cycles of 95° C. for 15 sec, 60° C. for 1 minute. The ΔCT values (CT5B-CTGAPDH) were plotted against the concentration of test compound and fitted to the sigmoid dose-response model using XLfit4 (MDL). […] Alternatively, to quantitate the absolute amount of replicon RNA, a standard curve was established by including serially diluted T7 transcripts of replicon RNA in the Taqman assay. All Taqman reagents were from PE Applied Biosystems. Such an assay procedure was described in detail in e.g. Malcolm et al., Antimicrobial Agents and Chemotherapy 50: 1013-1020 (2006).

[1] = Hepatitis C virus, 72 h, read-out: 1b EC50
[2] = Hepatitis C virus, 72 h, replicon RNA level by real time PCR (Taqman), cells harvested on day 3; read-out: 1b EC50
[3] = replicon RNA level by real time PCR (Taqman), cells harvested on day 3; read-out: 1b EC50

`CC(C)OC(=O)[C@H](C)NP(=O)(OC[C@H]1O[C@@H](c2ccc3c(N)ncnn23)[C@](C)(C#N)[C@@H]1O)Oc1ccccc1` (single isomer, unassigned) [Compound 11] showed an EC50 [1] of 35 µM.

Work on `CC(C)OC(=O)COP(=O)(N[C@@H](C)C(=O)OC(C)C)OC[C@H]1O[C@@H](c2ccc3c(N)ncnn23)[C@](C)(C#N)[C@@H]1O` (single isomer, unassigned) [Compound 12] yielded an EC50 [2] of over 100 µM.

`CC(C)OC(=O)[C@H](C)NP(=O)(OC[C@H]1O[C@@H](c2cnc3c(N)ncnn23)[C@](C)(C#N)[C@@H]1O)Oc1ccccc1` (single isomer, unassigned) [Compound 14] showed an EC50 [1] of over 100 µM.

For `CC(C)OC(=O)[C@H](C)NP(=O)(OC[C@H]1O[C@@H](c2cnc3c(N)ncnn23)[C@](C)(C#N)[C@@H]1O)Oc1ccccc1` (single isomer, unassigned) [Compound 15], the EC50 (read-out: 1b EC50; replicon RNA level by real time PCR (Taqman), cells harvested on day 3) was over 100 µM.

Molecule `CC(C)(C)COP1(=O)OC[C@H]2O[C@@H](c3ccc4c(N)ncnn34)[C@](C)(C#N)[C@@H]2O1` (single isomer, unassigned) [Compound 18] has an EC50 [2] of 33 µM.

`CC(C)(C)COP1(=O)OC[C@H]2O[C@@H](c3ccc4c(N)ncnn34)[C@](C)(C#N)[C@@H]2O1` (single isomer, unassigned) [Compound 19] gave an EC50 [3] of 46 µM.

Molecule `CC(C)OP1(=O)OC[C@H]2O[C@@H](c3cnc4c(N)ncnn34)[C@](C)(C#N)[C@@H]2O1` (single isomer, unassigned) [Compound 20] has an EC50 [2] of 77 µM.

Work on `CC(C)OP1(=O)OC[C@H]2O[C@@H](c3cnc4c(N)ncnn34)[C@](C)(C#N)[C@@H]2O1` (single isomer, unassigned) [Compound 21] yielded an EC50 [3] of over 100 µM.

Source: patent publication US9242988B2, “2′-cyano substituted nucleoside derivatives and methods of use thereof for the treatment of viral diseases” (Merck Sharp & Dohme Corp., priority 2012, dated 2016)
